Measurements as given in PMC9220408, “Enhanced Antibacterial Activity of Dermaseptin through Its Immobilization on Alginate Nanoparticles—Effects of Menthol and Lactic Acid on Its Potentialization” (Antibiotics, 2022).
Ends that are not written are not given here.

Assays:
E. coli 184 [1] = tested on: E. coli 184
Method: (§1) The minimum inhibitory concentration (MIC) of the aforementioned formulations was determined in triplicate in 96-well microtiter plates using the broth microdilution method. Fresh colonies of E. coli were sub-cultured in Mueller–Hinton broth (Sigma-Aldrich) and were grown at 37 °C overnight on a rotary shaker at 160 rpm. […] The plates were incubated for 24 h at 37 °C, and inhibition of growth was measured at 600 nm with a spectrophotometer ELx808^tm (BioTek, Winoosky, VT, USA).
The ability of these new formulations to resist the conditions of the gastrointestinal tract (GIT) environment was determined as previously described. […]
To this end, we used pepsin, a digestive enzyme from the stomach, and active at pH 3, trypsin and chymotrypsin, which are synthesized in the pancreas and secreted in the small intestine, active between pH 6 and pH 8.

E. coli 184 [2] = assay type: cell-based, Escherichia coli; details: broth microdilution, Mueller-Hinton broth, 24 h, 37 °C, OD 600 nm, triplicate; MIC as lowest concentration of DRS-B2 peptide; colistin-resistant strain (mcr-1)
Method: (§2) The Escherichia coli (E. coli) strains used in this study included E. coli ATCC 8739 and E. coli 184, which is resistant to colistin. […] E. coli strains were grown at 37 °C in Brain Heart Infusion (BHI) medium (Sigma-Aldrich, St. Louis, MA, USA).
as §1

E. coli ATCC 8739 = assay type: cell-based, Escherichia coli; details: broth microdilution, Mueller-Hinton broth, 24 h, 37 °C, OD 600 nm, triplicate; MIC as lowest concentration of DRS-B2 peptide; colistin-sensitive strain
Method: as §2, §1

[3] = tested on: CHO (Chinese Hamster Ovary) cells; details: DRS-B2 at 39.7 µg/mL (10 µM); cited from earlier work
IPEC-1 cells = test: Cytotoxicity assay (CCK8); details: 24 h, 37 °C, CCK8, % of non-treated cells
Method: The cytotoxicity assay was performed as previously reported. Briefly, human colon carcinoma (HT29) and porcine intestinal (IPEC-1) cells (Sigma-Aldrich) were cultivated in Dulbecco’s Modified Eagle Medium (DMEM, Gibco, Thermo Fisher, Waltham, MA, USA) in 96-well-tissue culture plates for 48–72 h at 37 °C, in atmosphere containing 5% CO2, until the formation of a continuous confluent cell culture on the bottom of each well. […] The required concentrations were prepared in DMEM without antibiotics and serum and were added to the HT29/IPEC-1 cells in the wells, after washing with the same medium. The treated cells were then incubated for 24 h at 37 °C, in atmosphere containing 5% CO2. To assess the cell viability of the treated HT29/IPEC-1 cells, CCK8 assay (Dojindo Molecular Technologies, Tokyo, Japan) was realized according to the supplier recommendations. An amount of 150 µL of DMEM containing 7.5 µL of CCK-8 reagents were added to each well, and cells were incubated for 2 h. Plates were read at 450 nm in a microplate reader spectrophotometer (Xenius, Safas, Monaco).

[4] = Size (DLS) and zeta potential; assay type: physicochemical; details: pH 6.3; Alg NPs 500 µg/mL, DRS-B2 40 µg/mL
Method: The concentration of Alg NPs has been set to 500 µg/mL in order to allow a good dispersion and avoid any aggregation or sedimentation that could interfere with the adsorption. […]

[5] = tested on: MCF-7 (breast cancer) cells; details: MCF-7, inhibition of thymidine incorporation; cited from earlier work
Source text: Of note, though many peptides endowed with biological functions, such as inhibitory activities, could be hemolytic, their combination with nanoparticles frequently allows them to discard this adverse trait. Charpentier et al. focused on the cytotoxicity of dermaseptin B3 and B4 on mammalian cells. These authors evaluated dermaseptin B3 and B4 abilities to inhibit thymidine incorporation into transformed human MCF-7 (breast cancer) cells. The results obtained unveiled 50% cytotoxicity when DRS-B3 was used at 27.8 µg/mL (10 µM). However, Galanth et al. reported that wh ...

Row | Substance | MICs of DRS-B2, Treatment with Pepsin (E. coli 184 [1]; 30 min at pH 3 with pepsin (15 U/mL) and then 2 h at pH 6, 20 mM PBS, 39 °C at 140 rpm) [µg/mL] | MICs of DRS-B2, Treatment with Digestive Enzymes (E. coli 184 [1]; 30 min at pH 3 with pepsin (15 U/mL) and then 2 h at pH 6 with trypsin (40 U/µL) + chymotrypsin (5 U/mL), 20 mM PBS, 39 °C at 140 rpm) [µg/mL] | MICs of DRS-B2, Treatment with pH Variation Only (E. coli 184 [1]; incubation 30 min at pH 3 and then 2 h at pH 6, 20 mM PBS, 39 °C at 140 rpm, no enzymes) [µg/mL] | MICs of DRS-B2, Without Treatment (E. coli 184 [1]; no physical or enzymatic treatment) [µg/mL] | MIC E. coli 184 (E. coli 184 [2]) [µg/mL] | MIC E. coli ATCC8739 (E. coli ATCC 8739) [µg/mL] | toxic effect on CHO cells (in words) [3] | percentage of survival of IPEC-1 cell line (IPEC-1 cells; DRS-B2 at 30 µg/mL (alone or adsorbed on Alg NPs)) [%] | percentage of survival of IPEC-1 cell line (IPEC-1 cells; DRS-B2 at 125 µg/mL (alone or adsorbed on Alg NPs)) [%] | Zeta Potential (ζ) [4] | concentration giving 50% cytotoxicity [5] [ng/mL]
1 | GLWSKIKEVGKEAAKAAAKAAGKAALGAVSEAV-NH2 [DRS-B2, Dermaseptin B2] | ≥10 | ≥10 | 10 | 7.5 | 7.5 | 3.75 | not any toxic effect | 87 | 68 | +23 mV | 
2 | dermaseptin B3 [DRS-B3] |  |  |  |  |  |  |  |  |  |  | 27800
